Assays:
[1] = system: thsd1-MO injected zebrafish embryos; assay: Hemorrhagic incidence in thsd1-MO injected zebrafish embryos (Table 5 constructs) treated with SRC inhibitors (FIG. 13); format: in vivo
Description: (§1) Anti-sense morpholinos against thsd1, atg5 or talin was injected into one-cell stage zebrafish singly or in combination to silence the gene accordingly. At day 2 to day 3, embryos will be checked under regular optical microscope. Embryos with intracranial hemorrhages will be counted and imaged by Olympus microscope.
Subsequently, the nucleic acid constructs encoding these sequences were introduced into zebrafish thsd1 by PCR mutagenesis. Specifically, the thsd1 variant or the WT sequence was subcloned into pCS2+ zebrafish vector for expression. These constructs were used as tools to study cerebrovascular integrity mediated by thsd1 WT and rare variants in the zebrafish animal model selected to model a human condition.
All embryos were injected by thsd1-MO and the hemorrhagic incidence was counted under microscope. For each injection, around 80-120 embryos were injected. *p<0.05, **p<0.01.

[2] = system: Thsd1-deficient zebrafish; assay: Intracranial hemorrhage in thsd1 knockdown zebrafish embryos treated with SRC inhibitor (FIG. 8); format: in vivo; details: vs DMSO control, n>120 embryos, p<0.05, FIG. 8b
Description: as §1
Intracranial aneurysm and hemorrhage are tightly associated with compromised cerebrovascular integrity. Recently, zebrafish have gained additional popularity as a vertebrate model organism for studying the cerebrovasculature. Since zebrafish embryos are transparent, intracranial hemorrhage can be directly observed using a standard microscope. Furthermore, zebrafish fecundity and rapid development permits rapid phenotypic evaluation as intracranial hemorrhage in zebrafish fry are detectable as early as 2-3 days post fertilization. Importantly, gain-of-function and loss-of-function approaches are well established in zebrafish that include morpholino and mRNA injections and more recently, through applications of CRISPR/Cas9 technology.
FIGS. 8a-8b are experimental results depicting that loss-of-function of Thsd1 induces SRC-dependent intracranial hemorrhage in zebrafish, and treatment with a PP2 SRC inhibitor prevents intracranial hemorrhage in Thsd1-deficient zebrafish. […] FIG. 8b is a chart quantifying the number of embryos with intracranial hemorrhage (%).

Row | Structure (SMILES) | hemorrhagic incidence (intracranial hemorrhage) ([1]; 1 uM in embryo water at 1 dpf for 24 hours) | hemorrhagic incidence (intracranial hemorrhage) ([1]; 10 uM in embryo water at 1 dpf for 24 hours) | number of embryos with intracranial hemorrhage (%) [2]
1 | CN(C)S(=O)(=O)c1ccc2c(c1)/C(=C/c1cc3c([nH]1)CCCC3)C(=O)N2 [SU5565] | rescued intracranial hemorrhage |  | 
2 | CC(C)(C)n1nc(-c2ccc(Cl)cc2)c2c(N)ncnc21 [PP2] |  | rescued intracranial hemorrhage | ameliorated Thsd1-dependent hemorrhage incidents

Source: patent US20230210858A1, “PODOSOMES AS A THERAPEUTIC TARGET FOR INTRACRANIAL ANEURYSM” (THE BOARD OF REGENTS OF THE UNIVERSITY OF TEXAS SYSTEM, priority 2022, published 2023)
